# Data reported in BindingDB's records for doi:10.1021/acschembio.6b00720 (University of Michigan, 2016).
# Tests used:
# [1] = target: Acyl-protein thioesterase 2 [H152R] (Homo sapiens, UniProt O95372, H152R); assay: Steady-State Kinetic Assays; details: pH 6.5
# Description: (§1) Enzymes were diluted to 10 nM in PBS pH 6.5 (adjusted with sodium acetate) supplemented with 0.1 g/L pluronic F127 (Sigma). Varying concentrations of resorufin acetate (Sigma) in DMSO were added as 5 μL aliquots to clear-bottom 96-well plates (Greiner bio-one). Using a multi-channel pipette, 95 μL of enzyme was added to each well and quickly mixed by pipetting up and down several times. Each enzyme was assayed in 2 separate runs, each with 4 replicates per substrate concentration and 4 replicates of catalytic-dead enzyme.
# [2] = target: Acyl-protein thioesterase 2 [L78I,A85S,P86Q] (Homo sapiens, UniProt O95372, A85S/L78I/P86Q); assay: Steady-State Kinetic Assays; details: pH 6.5
# Acyl-protein thioesterase 2 [L78I,A85S,P86Q], sequence (O95372 whole entry L78I/A85S/P86Q): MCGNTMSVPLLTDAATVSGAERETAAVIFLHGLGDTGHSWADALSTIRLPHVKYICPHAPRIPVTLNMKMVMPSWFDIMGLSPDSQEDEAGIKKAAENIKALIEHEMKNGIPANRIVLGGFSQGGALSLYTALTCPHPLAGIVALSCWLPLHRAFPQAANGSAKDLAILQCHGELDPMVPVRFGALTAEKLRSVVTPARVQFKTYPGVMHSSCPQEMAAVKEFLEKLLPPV
# Description: as §1
# [3] = target: Acyl-protein thioesterase 2 [L78I] (Homo sapiens, UniProt O95372, L78I); assay: Steady-State Kinetic Assays; details: pH 6.5
# Acyl-protein thioesterase 2 [L78I], sequence (O95372 whole entry L78I): as the sequence (O95372 whole entry L78I/A85S/P86Q) above, with S85A, Q86P counted along it
# Description: as §1
# [4] = target: Acyl-protein thioesterase 1 [I75L,S82A] (Homo sapiens, UniProt O75608, I75L/S82A); assay: Steady-State Kinetic Assays; details: pH 6.5
# Acyl-protein thioesterase 1 [I75L,S82A], sequence (O75608 whole entry I75L/S82A): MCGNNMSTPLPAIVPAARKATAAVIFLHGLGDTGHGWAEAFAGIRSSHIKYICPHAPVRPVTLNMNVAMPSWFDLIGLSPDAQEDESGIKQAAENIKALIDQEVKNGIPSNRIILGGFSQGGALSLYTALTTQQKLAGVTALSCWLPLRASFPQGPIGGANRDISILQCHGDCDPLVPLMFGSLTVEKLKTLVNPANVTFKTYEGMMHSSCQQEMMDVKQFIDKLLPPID
# Description: as §1
# [5] = target: Acyl-protein thioesterase 1 [I75L,S82A,Q83P,R149H,A150R,S151A] (Homo sapiens, UniProt O75608, A150R/I75L/Q83P/R149H/S151A/S82A); assay: Steady-State Kinetic Assays; details: pH 6.5
# Acyl-protein thioesterase 1 [I75L,S82A,Q83P,R149H,A150R,S151A], sequence (O75608 whole entry I75L/S82A/Q83P/R149H/A150R/S151A): as the sequence (O75608 whole entry I75L/S82A) above, with Q83P, R149H, A150R, S151A counted along it
# Description: as §1
# [6] = target: T1, Acyl-protein thioesterase 2 (Homo sapiens, UniProt O95372); assay: Steady-State Kinetic Assays; details: pH 6.5
# T1 sequence (O95372 whole entry): as the sequence (O95372 whole entry L78I/A85S/P86Q) above, with I78L, S85A, Q86P counted along it
# Description: as §1
# [7] = target: Acyl-protein thioesterase 2 [M178L] (Homo sapiens, UniProt O95372, M178L); assay: Steady-State Kinetic Assays; details: pH 6.5
# Acyl-protein thioesterase 2 [M178L], sequence (O95372 whole entry M178L): as the sequence (O95372 whole entry L78I/A85S/P86Q) above, with I78L, S85A, Q86P, M178L counted along it
# Description: as §1
# [8] = target: Acyl-protein thioesterase 1 [L176M] (Homo sapiens, UniProt O75608, L176M); assay: Steady-State Kinetic Assays; details: pH 6.5
# Acyl-protein thioesterase 1 [L176M], sequence (O75608 whole entry L176M): as the sequence (O75608 whole entry I75L/S82A) above, with L75I, A82S, L176M counted along it
# Description: as §1
# [9] = target: Acyl-protein thioesterase 1 [Q83P] (Homo sapiens, UniProt O75608, Q83P); assay: Steady-State Kinetic Assays; details: pH 6.5
# Acyl-protein thioesterase 1 [Q83P], sequence (O75608 whole entry Q83P): as the sequence (O75608 whole entry I75L/S82A) above, with L75I, A82S, Q83P counted along it
# Description: as §1
# [10] = target: Acyl-protein thioesterase 1 [I75L,S82A,Q83P] (Homo sapiens, UniProt O75608, I75L/Q83P/S82A); assay: Steady-State Kinetic Assays; details: pH 6.5
# Acyl-protein thioesterase 1 [I75L,S82A,Q83P], sequence (O75608 whole entry I75L/S82A/Q83P): as the sequence (O75608 whole entry I75L/S82A) above, with Q83P counted along it
# Description: as §1
# [11] = target: Acyl-protein thioesterase 2 [L78I,A85S] (Homo sapiens, UniProt O95372, A85S/L78I); assay: Steady-State Kinetic Assays; details: pH 6.5
# Acyl-protein thioesterase 2 [L78I,A85S], sequence (O95372 whole entry L78I/A85S): as the sequence (O95372 whole entry L78I/A85S/P86Q) above, with Q86P counted along it
# Description: as §1
# [12] = target: Acyl-protein thioesterase 2 [P86Q] (Homo sapiens, UniProt O95372, P86Q); assay: Steady-State Kinetic Assays; details: pH 6.5
# Acyl-protein thioesterase 2 [P86Q], sequence (O95372 whole entry P86Q): as the sequence (O95372 whole entry L78I/A85S/P86Q) above, with I78L, S85A counted along it
# Description: as §1
# [13] = target: Acyl-protein thioesterase 2 [L78I,A85S,P86Q,H152R,R153A,A154S] (Homo sapiens, UniProt O95372, A154S/A85S/H152R/L78I/P86Q/R153A); assay: Steady-State Kinetic Assays; details: pH 6.5
# Acyl-protein thioesterase 2 [L78I,A85S,P86Q,H152R,R153A,A154S], sequence (O95372 whole entry L78I/A85S/P86Q/H152R/R153A/A154S): as the sequence (O95372 whole entry L78I/A85S/P86Q) above, with H152R, R153A, A154S counted along it
# Description: as §1
# [14] = target: Acyl-protein thioesterase 1 (Homo sapiens, UniProt O75608); assay: Steady-State Kinetic Assays; details: pH 6.5
# Acyl-protein thioesterase 1, sequence (O75608 whole entry): as the sequence (O75608 whole entry I75L/S82A) above, with L75I, A82S counted along it
# Description: as §1
# [15] = target: Acyl-protein thioesterase 1 [I75L] (Homo sapiens, UniProt O75608, I75L); assay: Steady-State Kinetic Assays; details: pH 6.5
# Acyl-protein thioesterase 1 [I75L], sequence (O75608 whole entry I75L): as the sequence (O75608 whole entry I75L/S82A) above, with A82S counted along it
# Description: as §1
# [16] = target: T1, Acyl-protein thioesterase 2; assay: Fluorescence Binding Assays; details: 25 °C
# [17] = target: Acyl-protein thioesterase 2 [S122A] (Homo sapiens, UniProt O95372, S122A); assay: Fluorescence Binding Assays; details: 25 °C
# Acyl-protein thioesterase 2 [S122A], sequence (O95372 whole entry S122A): as the sequence (O95372 whole entry L78I/A85S/P86Q) above, with I78L, S85A, Q86P, S122A counted along it
# Acyl-protein thioesterase 2 [H152R], sequence (O95372 whole entry H152R): as the sequence (O95372 whole entry L78I/A85S/P86Q) above, with I78L, S85A, Q86P, H152R counted along it
Ki [1],Ki [2],Ki [3],Ki [4],Ki [5],Ki [6],Ki [7],Ki [8],Ki [9],Ki [10],Ki [11],Ki [12],Ki [13],Ki [14],Ki [15],IC50 [16],Kd [16],IC50 [17],Kd [17],SMILES
660 nM,> 10 µM,> 10 µM,280 nM,180 nM,120 nM,200 nM,> 10 µM,> 10 µM,1200 nM,> 10 µM,130 nM,> 10000 nM,> 10 µM,370 nM,1100 nM,240 nM,1000 nM,160 nM,COc1ccc(N2CCN(C(=O)c3cc4c(s3)-c3ccccc3S(=O)(=O)C4)CC2)cc1 [ML349]
> 10000 nM,3.4 µM,5.8 µM,–,–,> 10000 nM,> 10000 nM,–,–,–,6.2 µM,> 10000 nM,430 nM,–,–,–,–,–,–,O=C(CN1CCN(C(=O)c2ccco2)CC1)Nc1cc(C(F)(F)F)ccc1Cl [ML348]
–,–,–,–,–,–,–,–,–,–,–,–,–,–,–,–,1020 nM,–,770 nM,O=C1C=CC2C(=C1)Oc1cc(O)ccc1C2c1cc(C(=O)NCCOCCOCCOCCn2cc(COc3ccc(N4CCN(C(=O)c5cc6c(s5)-c5ccccc5S(=O)(=O)C6)CC4)cc3)nn2)ccc1C(=O)O (stereo not drawn)
–,–,–,–,–,–,–,–,–,–,–,–,–,–,–,> 100000 nM,> 10000 nM,> 100000 nM,> 10000 nM,COc1ccc(N2CCN(C(=O)c3cc4c(s3)-c3ccccc3SC4)CC2)cc1 [ML349-thioether]
